Test results from patent publication US20250154173A1 (Merck Sharp & Dohme LLC, priority 2023, published 2025).

target: T1, GST-RIPK1 (recombinant GST-RIPK1 kinase domain (residues 1-327)) (Homo sapiens, UniProt Q13546); test: RIPK1-ADP-Glo Enzymatic Assay; format: biochemical; settings: ten-point titration, top compound concentration of 100000 nM; 25 nM GST-RIPK1, 300 μM ATP, 3 μM dephosphorylated-MBP; 30 min pre-incubation, 150 min reaction
T1 construct: recombinant GST-RIPK1 kinase domain (residues 1-327) enzyme produced from baculovirus-transfected Sf21 cells; host or cells: baculovirus-transfected Sf21 insect cells
T1 sequence (Q13546 1-327): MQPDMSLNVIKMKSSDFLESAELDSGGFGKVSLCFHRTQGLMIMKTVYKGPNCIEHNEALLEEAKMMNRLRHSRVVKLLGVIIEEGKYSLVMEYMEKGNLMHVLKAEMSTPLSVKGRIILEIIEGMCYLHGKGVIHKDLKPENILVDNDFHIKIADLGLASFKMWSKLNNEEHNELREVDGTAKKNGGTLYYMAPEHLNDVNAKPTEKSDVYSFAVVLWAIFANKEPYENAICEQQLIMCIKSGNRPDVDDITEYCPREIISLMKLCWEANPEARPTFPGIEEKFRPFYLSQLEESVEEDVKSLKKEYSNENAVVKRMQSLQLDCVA
Summary of the method: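 ADP-Glo luminescence quantifies ADP formed over 150 minutes by 25 nM Sf21-produced GST-RIPK1 (1-327) using 300 μM ATP and 3 μM dephosphorylated MBP, following 30-minute compound preincubation at 1% DMSO. Ten-point 1:3 series from 100000 nM gave EC50 via four-parameter sigmoidal regression.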

SMILES | EC50 [nM]
O=C1N2[C@@H](CC[C@H]2c2cc(F)cc(F)c2)O[C@]12C[C@@H](Oc1cc(Cl)ncn1)C2 [Example 9.13, (1s,3S,5′S,7a′R)-3-((6-chloropyrimidin-4-yl)oxy)-5′-(3,5-difluorophenyl)tetrahydro-3′H-spiro[cyclobutane-1,2′-pyrrolo[2,1-b]oxazol]-3′-one] | 108
O=C1N2[C@@H](CC[C@H]2c2cncc(F)c2)OC12CCC(Oc1ccccc1)CC2 (single isomer, unassigned) [Example 16.4, (1s or r), (5′S,7a′R)-5′-(5-fluoropyridin-3-yl)-4-phenoxytetrahydro-3′H-spiro[cyclohexane-1,2′-pyrrolo[2,1-b]oxazol]-3′-one] | 476
O=C1N2[C@@H](CC[C@H]2c2cc(F)cc(F)c2)OC12CC(Oc1ncccc1F)C2 (stereo partly drawn) [Example 9.38, (5′S,7a′R)-5′-(3,5-difluorophenyl)-3-[(3-fluoropyridin-2-yl)oxy]tetrahydro-3′H-spiro[cyclobutane-1,2′-pyrrolo[2,1-b][1,3]oxazol]-3′-one] | 29
O=C1N2[C@@H](CC[C@H]2c2ccccc2)OC12CC(Oc1cncc(Cl)c1)C2 (stereo partly drawn) [Example 8.17] | 35
N#Cc1ccc2c(O[C@H]3C[C@@]4(C3)O[C@@H]3CC[C@@H](c5cc(F)cc(F)c5)N3C4=O)ncnn12 [Example 11.2, 4-(((1r,3R,5′S,7a′R)-5′-(3,5-difluorophenyl)-3′-oxotetrahydro-3′H-spiro[cyclobutane-1,2′-pyrrolo[2,1-b]oxazol]-3-yl)oxy)pyrrolo[2,1-f][1,2,4]triazine-7-carbonitrile] | 16
O=C1N2[C@@H](CC[C@H]2c2cc(F)cc(F)c2)O[C@]12C[C@@H](Oc1cc(F)ncn1)C2 [Example 9.10, (1s,3S,5′S,7a′R)-5′-(3,5-difluorophenyl)-3-((6-fluoropyrimidin-4-yl)oxy)tetrahydro-3′H-spiro[cyclobutane-1,2′-pyrrolo[2,1-b]oxazol]-3′-one] | 35
N#Cc1ccnc(O[C@H]2C[C@@]3(C2)O[C@@H]2CC[C@@H](c4ccccc4)N2C3=O)c1 [Example 10.4, 2-(((1r,3R,5′S,7a′R)-3′-oxo-5′-phenyltetrahydro-3′H-spiro[cyclobutane-1,2′-pyrrolo[2,1-b]oxazol]-3-yl)oxy)isonicotinonitrile] | 13
O=C1N2[C@@H](CC[C@H]2c2ccccc2)OC12CC(Oc1ccnc(Cl)c1)C2 (stereo partly drawn) [Example 8.11, (5′S,7a′R)-3-[(2-chloropyridin-4-yl)oxy]-5′-phenyltetrahydro-3′H-spiro[cyclobutane-1,2′-pyrrolo[2,1-b][1,3]oxazol]-3′-onee] | 32
N#Cc1cccc(OC2CC3(C2)O[C@@H]2CC[C@@H](c4ccccc4)N2C3=O)c1 (stereo partly drawn) [Example 8.5, 3-{[(5′S,7a′R)-3′-oxo-5′-phenyltetrahydro-3′H-spiro[cyclobutane-1,2′-pyrrolo[2,1-b][1,3]oxazol]-3-yl]oxy}benzonitrile] | 20
O=C1N2[C@@H](CC[C@H]2c2ccccc2)OC12CC(Oc1ccnn3cccc13)C2 (stereo partly drawn) [Example 8.21, (5′S,7a′R)-5′-phenyl-3-[(pyrrolo[1,2-b]pyridazin-4-yl)oxy]tetrahydro-3′H-spiro[cyclobutane-1,2′-pyrrolo[2,1-b][1,3]oxazol]-3′-one] | 39

More lines, now with the values ahead:

EC50 [nM] | SMILES
32 | N#Cc1ccc(COC2CC3(C2)OC2CC[C@@H](c4cnccn4)N2C3=O)c2cccnc12 (stereo partly drawn) [Example 18.65, 5-({[(5′S)-3′-oxo-5′-(pyrazin-2-yl)tetrahydro-3′H-spiro[cyclobutane-1,2′-pyrrolo[2,1-b][1,3]oxazol]-3-yl]oxy}methyl)quinoline-8-carbonitrile]
896 | COc1ccc(C#N)nc1COC1CC2(C1)OC1CC[C@@H](c3cnccn3)N1C2=O (stereo partly drawn) [Example 18.75, 5-methoxy-6-({[(5′S)-3′-oxo-5′-(pyrazin-2-yl)tetrahydro-3′H-spiro[cyclobutane-1,2′-pyrrolo[2,1-b][1,3]oxazol]-3-yl]oxy}methyl)pyridine-2-carbonitrile]
22 | O=C1N2C(CC[C@H]2c2cnccn2)OC12CC(OCc1cc3cncnc3s1)C2 (stereo partly drawn) [Example 18.20, (5′S)-5′-(pyrazin-2-yl)-3-[(thieno[2,3-d]pyrimidin-6-yl)methoxy]tetrahydro-3′H-spiro[cyclobutane-1,2′-pyrrolo[2,1-b][1,3]oxazol]-3′-one]
130 | N#CCCc1ccc(COC2CC3(C2)OC2CC[C@@H](c4cnccn4)N2C3=O)cc1 (stereo partly drawn) [Example 18.95, 3-[4-({[(5′S)-3′-oxo-5′-(pyrazin-2-yl)tetrahydro-3′H-spiro[cyclobutane-1,2′-pyrrolo[2,1-b][1,3]oxazol]-3-yl]oxy}methyl)phenyl]propanenitrile]
13 | Cn1nccc1-c1cc(OC2CC3(C2)O[C@@H]2CC[C@@H](c4cnccn4)N2C3=O)ncn1 (stereo partly drawn) [Example 19.20, (5′S,7a′R)-3-{[6-(1-methyl-1H-pyrazol-5-yl)pyrimidin-4-yl]oxy}-5′-(pyrazin-2-yl)tetrahydro-3′H-spiro[cyclobutane-1,2′-pyrrolo[2,1-b][1,3]oxazol]-3′-one]
23 | O=C1N2[C@@H](CC[C@H]2c2cnccn2)OC12CC(Oc1cncc(Cl)c1)C2 (stereo partly drawn) [Example 19.18, (5′S,7a′R)-3-[(5-chloropyridin-3-yl)oxy]-5′-(pyrazin-2-yl)tetrahydro-3′H-spiro[cyclobutane-1,2′-pyrrolo[2,1-b][1,3]oxazol]-3′-one]
231 | COc1cc(COC2CC3(C2)OC2CC[C@@H](c4cnccn4)N2C3=O)cc2nccn12 (stereo partly drawn) [Example 18.34, (5′S)-3-[(5-methoxyimidazo[1,2-a]pyridin-7-yl)methoxy]-5′-(pyrazin-2-yl)tetrahydro-3′H-spiro[cyclobutane-1,2′-pyrrolo[2,1-b][1,3]oxazol]-3′-one]
27 | O=C1N2[C@@H](CC[C@H]2c2cnccn2)OC12CC(OCc1csc3ncccc13)C2 (stereo partly drawn) [Example 19.19, (5′S,7a′R)-5′-(pyrazin-2-yl)-3-[(thieno[2,3-b]pyridin-3-yl)methoxy]tetrahydro-3′H-spiro[cyclobutane-1,2′-pyrrolo[2,1-b][1,3]oxazol]-3′-one]
241 | O=C1N2C(CC[C@H]2c2cnccn2)OC12CC(OCc1ccc(OCCF)nn1)C2 (stereo partly drawn) [Example 18.44, (5′S)-3-{[6-(2-fluoroethoxy)pyridazin-3-yl]methoxy}-5′-(pyrazin-2-yl)tetrahydro-3′H-spiro[cyclobutane-1,2′-pyrrolo[2,1-b][1,3]oxazol]-3′-one]
45 | O=C1N2C(CC[C@H]2c2cnccn2)OC12CC(OCc1cnn3cccnc13)C2 (stereo partly drawn) [Example 18.4, (5′S)-5′-(pyrazin-2-yl)-3-[(pyrazolo[1,5-a]pyrimidin-3-yl)methoxy]tetrahydro-3′H-spiro[cyclobutane-1,2′-pyrrolo[2,1-b][1,3]oxazol]-3′-one]
198 | N#CCc1ncc(COC2CC3(C2)OC2CC[C@@H](c4cnccn4)N2C3=O)cc1Cl (stereo partly drawn) [Example 18.98, [3-chloro-5-({[(5′S)-3′-oxo-5′-(pyrazin-2-yl)tetrahydro-3′H-spiro[cyclobutane-1,2′-pyrrolo[2,1-b][1,3]oxazol]-3-yl]oxy}methyl)pyridin-2-yl]acetonitrile]
18 | N#Cc1cccc(OC2CC3(C2)O[C@@H]2CC[C@@H](c4cnccn4)N2C3=O)c1 (stereo partly drawn) [Example 19.15, 3-{[(5′S,7a′R)-3′-oxo-5′-(pyrazin-2-yl)tetrahydro-3′H-spiro[cyclobutane-1,2′-pyrrolo[2,1-b][1,3]oxazol]-3-yl]oxy}benzonitrile]
126 | N#Cc1ccoc1COC1CC2(C1)OC1CC[C@@H](c3cnccn3)N1C2=O (stereo partly drawn) [Example 18.55, 2-({[(5′S)-3′-oxo-5′-(pyrazin-2-yl)tetrahydro-3′H-spiro[cyclobutane-1,2′-pyrrolo[2,1-b][1,3]oxazol]-3-yl]oxy}methyl)furan-3-carbonitrile]
94 | COc1ccc(COC2CC3(C2)OC2CC[C@@H](c4cnccn4)N2C3=O)cc1CC#N (stereo partly drawn) [Example 18.86, [2-methoxy-5-({[(5′S)-3′-oxo-5′-(pyrazin-2-yl)tetrahydro-3′H-spiro[cyclobutane-1,2′-pyrrolo[2,1-b][1,3]oxazol]-3-yl]oxy}methyl)phenyl]acetonitrile]
20 | N#CC1(c2ccc(COC3CC4(C3)OC3CC[C@@H](c5cnccn5)N3C4=O)c(Cl)c2)CC1 (stereo partly drawn) [Example 18.79, 1-[3-chloro-4-({[(5′S)-3′-oxo-5′-(pyrazin-2-yl)tetrahydro-3′H-spiro[cyclobutane-1,2′-pyrrolo[2,1-b][1,3]oxazol]-3-yl]oxy}methyl)phenyl]cyclopropane-1-carbonitrile]
227 | N#Cc1cc(OC2CC3(C2)O[C@@H]2CC[C@@H](c4cc(F)cc(F)c4)N2C3=O)ncc1F (single isomer, unassigned) [Example 17.2, 2-((((1r or s),3S,5′S,7a′R)-5′-(3,5-difluorophenyl)-3′-oxotetrahydro-3′H-spiro[cyclobutane-1,2′-pyrrolo[2,1-b]oxazol]-3-yl)oxy)-5-fluoroisonicotinonitrile]
45 | O=C1N2C(CC[C@H]2c2cnccn2)OC12CC(OCc1ccc(-c3ccon3)cc1)C2 (stereo partly drawn) [Example 18.30, (5′S)-3-{[4-(1,2-oxazol-3-yl)phenyl]methoxy}-5′-(pyrazin-2-yl)tetrahydro-3′H-spiro[cyclobutane-1,2′-pyrrolo[2,1-b][1,3]oxazol]-3′-one]
